# Columns and labels:
# [1] = test system: green peach aphid (Myzus persicae); assay: Myzus persicae test (Example A1, cabbage leaves sprayed); assay type: in vivo; conditions: spray
# [2] = test system: army worm larvae (Spodoptera frugiperda); assay: Spodoptera frugiperda larvae test (Example C, cabbage leaves sprayed); assay type: in vivo; conditions: spray
# [3] = test system: mustard beetle larvae (Phaedon cochleariae); assay: Phaedon cochleariae larvae test (Example B, cabbage leaves sprayed); conditions: 100 g/ha, spray
# [4] = test system: green peach aphid (Myzus persicae); assay: Myzus persicae test (Example A2, cabbage leaves dipped); assay type: in vivo; conditions: dipping
# Protocol: Cabbage leaves (Brassica oleracea) which are severely infested with the green peach aphid (Myzus persicae) are treated by dipping into the active substance preparation of the desired concentration.
SMILES,Destruction in % after 6 days ([2]; 4 g/ha) [%],Destruction in % after 2 days [3] [%],Destruction in % after 6 days ([2]; 0.8 g/ha) [%],Destruction in % after 1 day ([1]; 0.16 g/ha) [%],other results
"O=C1C=C(N(CCF)Cc2ccc(Cl)nc2)CO1 [Compound I-4, 4-{[(6-chloropyrid-3-yl)methyl](2-fluoroethyl)amino}furan-2(5H)-one]",0,0,–,–,Destruction in % after 1 day ([1]; 4 g/ha): 30%
"Cc1cc(C(F)(C(F)(F)F)C(F)(F)F)ccc1NC(=O)c1cccc(Cl)c1C(=O)N[C@@H](C)CS(C)(=O)=O [Compound IIb, (S)-3-chloro-N^1-{2-methyl-4-[1,2,2,2-tetrafluoro-1-(trifluoromethyl)ethyl]phenyl}-N^2-(1-methyl-2-methylsulphonylethyl)phthalamide]",–,–,67,–,Destruction in % after 1 day ([1]; 0.8 g/ha): 0%; Destruction in % after 1 day ([4]; 100 ppm): 10%; Destruction in % after 6 days ([2]; 0.16 g/ha): 0%
"Cc1cc(C(F)(C(F)(F)F)C(F)(F)F)ccc1NC(=O)c1cccc(I)c1C(=O)NC(C)(C)CS(C)(=O)=O [Flubendiamide, flubendiamide, reference compound]",67,17,33,0,–
"CN(Cc1ccc(Cl)nc1)C1=CC(=O)OC1 [Compound I-10, 4-{[(6-chloropyrid-3-yl)methyl](methyl)amino}furan-2(5H)-one]",–,–,–,–,Destruction in % after 1 day ([4]; 0.8 ppm): 45%
"O=C1C=C(N(Cc2ccc(Cl)nc2)CC(F)F)CO1 [Compound I-5, 4-{[(6-chloropyrid-3-yl)methyl](2,2-difluoroethyl)amino}furan-2(5H)-one]",–,–,0,–,–
"CN(Cc1cnc(Cl)c(F)c1)C1=CC(=O)OC1 [Compound I-6, 4-{[(6-chloro-5-fluoropyrid-3-yl)methyl](methyl)amino}furan-2(5H)-one]",0,0,–,30,–

# Reference: US8497228B2, “Active substance combinations with insecticidal and acaricidal properties” (Bayer Cropscience AG, priority 2007, dated 2013)
